Starred links: 1 amine or outer side, 2 acyl side, 3 side chain; linkers in the order of their positions; H or OH if unused. Positions of bridges follow the written chain, without caps; N, C: chain ends. Non-standard residues stand in square brackets, D forms with d. Residues, ends and D or L forms follow the SMILES beside them. Triazole bridges read from a SMILES are 1,4-linked. X38 = NC(=O)[C@H](CSCc1cccc(C[*:1])c1)NC(=O)[C@@H]1CCCC1C(=O)[C@H](Cc1ccc(OCC2CCCCC2)cc1)N[*:2]; Pro(cis-4-Ph) = O=C(O)[C@@H]1C[C@H](c2ccccc2)CN1; Phe(4-COOH) = N[C@@H](Cc1ccc(C(=O)O)cc1)C(=O)O; Trp(5-F) = N[C@@H](Cc1c[nH]c2ccc(F)cc12)C(=O)O; Trp(6-F) = N[C@@H](Cc1c[nH]c2cc(F)ccc12)C(=O)O; mXylylene(5-F) = Fc1cc(C[*:1])cc(C[*:2])c1; X19 = O=C(CCCCc1ccc(CCCCN[*:1])cc1)[*:2]; Lys(N3) = [N-]=[N+]=NCCCC[C@H](N)C(=O)O; Orn(N3) = [N-]=[N+]=NCCC[C@H](N)C(=O)O; mXylylene = c1cc(C[*:1])cc(C[*:2])c1; αMeP = C[C@@]1(C(=O)O)CCCN1; Hpra = C#CCC[C@H](N)C(=O)O; dPra = C#CC[C@@H](N)C(=O)O; Orn = NCCC[C@H](N)C(=O)O; Ahx = NCCCCCC(=O)O; Mpa = O=C(O)CCS

One may read the IC50 as the point on the concentration scale where inhibition reaches its midpoint.

In test [1] the target is human PCSK9 / human LDLR EGFa domain interaction (Homo sapiens (Human), UniProt Q8NBP7). The test is described as follows: TR-FRET assay of inhibition of the PCSK9-LDLR protein-protein interaction. The class given is binding. The following applies: TR-FRET, 20 nM human PCSK9, 20 nM human LDLR EGFa domain, 2 hours room temperature; read-out: IC50. The method in brief:
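Inhibition of PCSK9 binding to the LDLR EGFa domain, each protein at 20 nM, detected by TR-FRET using streptavidin and anti-His donor/acceptor labels (5 nM). Two-hour room-temperature incubation in calcium-containing HEPES buffer.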
Background: In TR-FRET formats the signal depends on donor and acceptor labels being close together.

Test [2] concerns the target PCSK9 (Homo sapiens (Human), UniProt Q8NBP7). Kind of test: PCSK9 Alexa FRET Standard assay (displacement of AlexaFluor647 tagged cyclic peptide Reagent A). The settings on record: PCSK9 Alexa FRET Standard assay, 0.5 nM PCSK9, 20 nM AF cyclic peptide Reagent A; read-out: IC50. In kind it is binding. An outline of the steps:
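TR-FRET displacement: 0.5 nM biotinylated PCSK9 with 1.25 nM Strep-Eu and 20 nM AlexaFluor-tagged cyclic peptide (final) in 50 mM HEPES pH 7.4, 0.15 M NaCl, 5 mM CaCl2, 0.01% BSA, 0.01% P20, ≥2 h at room temperature. IC50 from sigmoidal fit, converted to Ki via peptide KD; falling Eu counts flagged false positives.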

Chain of PCSK9 (Q8NBP7 153-692): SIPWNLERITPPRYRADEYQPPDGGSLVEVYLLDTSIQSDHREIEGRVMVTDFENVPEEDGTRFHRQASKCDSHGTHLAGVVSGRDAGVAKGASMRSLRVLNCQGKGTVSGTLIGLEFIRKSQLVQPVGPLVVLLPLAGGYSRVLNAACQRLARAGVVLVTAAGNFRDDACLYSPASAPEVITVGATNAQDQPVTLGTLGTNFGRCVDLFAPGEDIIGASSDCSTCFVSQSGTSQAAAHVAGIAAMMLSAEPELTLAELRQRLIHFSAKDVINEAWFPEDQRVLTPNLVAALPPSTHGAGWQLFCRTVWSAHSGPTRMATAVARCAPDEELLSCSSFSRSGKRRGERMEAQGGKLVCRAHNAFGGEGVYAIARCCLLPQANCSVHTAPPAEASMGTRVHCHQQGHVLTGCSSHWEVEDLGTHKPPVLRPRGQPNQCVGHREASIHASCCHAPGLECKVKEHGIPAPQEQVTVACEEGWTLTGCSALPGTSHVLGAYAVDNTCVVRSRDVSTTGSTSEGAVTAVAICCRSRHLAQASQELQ
Chain of human PCSK9 / human LDLR EGFa domain interaction (Q8NBP7 153-692): as above
Chain of human PCSK9 / human LDLR EGFa domain interaction (Q8NBP7 31-152 partner): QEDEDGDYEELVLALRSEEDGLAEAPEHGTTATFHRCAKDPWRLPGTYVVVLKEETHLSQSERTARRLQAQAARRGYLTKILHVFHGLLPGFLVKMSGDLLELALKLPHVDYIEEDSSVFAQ

Consider `CC(=O)N[C@H]1CCCCNC(=O)c2ccc(cc2)C[C@@H](C(N)=O)NC(=O)[C@]2(C)CCCN2C(=O)[C@H](Cc2ccc(O)cc2)NC(=O)[C@H](Cc2cnc[nH]2)NC(=O)[C@H](CC(=O)O)NC(=O)[C@H](Cc2c[nH]c3cc(F)ccc23)NC(=O)[C@H](Cc2c[nH]c3ccc(F)cc23)NC(=O)CNC(=O)[C@H](C)NC1=O` [Compound 312] (Ac-KAG[Trp(5-F)][Trp(6-F)]DHY[αMeP][Phe(4-COOH)]-NH2; lactam 1-10), for which the IC50 in test [1] fell in the range of 100 to 1000 nM; in test [2], 1000 to 12100 nM.
For the compound `C[C@@]12CCCN1C(=O)[C@H](Cc1ccc(O)cc1)NC(=O)[C@H](Cc1cnc[nH]1)NC(=O)[C@H](CC(=O)O)NC(=O)[C@H](Cc1c[nH]c3cc(F)ccc13)NC(=O)[C@H](Cc1c[nH]c3ccc(F)cc13)NC(=O)CNC(=O)CCCCCNC(=O)c1ccc(cc1)C[C@@H](C(N)=O)NC2=O` [Compound 313] ([Ahx]G[Trp(5-F)][Trp(6-F)]DHY[αMeP][Phe(4-COOH)]-NH2; lactam N-9), the IC50 in test [1] and in test [2] was 1000 to 12100 nM each time.
As to `CC(=O)N[C@H]1CCCNC(=O)c2ccc(cc2)C[C@@H](C(N)=O)NC(=O)[C@]2(C)CCCN2C(=O)[C@H](Cc2ccc(O)cc2)NC(=O)[C@H](Cc2cnc[nH]2)NC(=O)[C@H](CC(=O)O)NC(=O)[C@H](Cc2c[nH]c3cc(F)ccc23)NC(=O)[C@H](Cc2c[nH]c3ccc(F)cc23)NC(=O)CNC(=O)[C@H](C)NC1=O` [Compound 314] (Ac-[Orn]AG[Trp(5-F)][Trp(6-F)]DHY[αMeP][Phe(4-COOH)]-NH2; lactam 1-10), the IC50 in test [1] was in the range of 100 to 1000 nM; in test [2] it was 1000 to 12100 nM.
As to `C[C@H]1NC(=O)[C@H](Cc2cnc[nH]2)NC(=O)[C@H](CC(=O)O)NC(=O)[C@H](Cc2c[nH]c3ccc(F)cc23)NC(=O)[C@H](Cc2c[nH]c3ccc(F)cc23)NC(=O)CNC(=O)[C@H](CCCCN)NC(=O)CCSCc2cccc(c2)CSC[C@@H](C(N)=O)NC(=O)[C@]2(C)CCCN2C1=O` [Compound 319] ([Mpa]KG[Trp(5-F)][Trp(5-F)]DH[dA][αMeP]C-NH2; linker 1-10 via mXylylene), the IC50 was 100 to 1000 nM in test [1] and 1000 to 12100 nM in test [2].
In the case of `NCCCC[C@@H]1NC(=O)CCSCc2cccc(c2)CSC[C@@H](C(N)=O)NC(=O)[C@@H]2C[C@H](c3ccccc3)CN2C(=O)[C@H](Cc2ccc(O)cc2)NC(=O)[C@H](Cc2cnc[nH]2)NC(=O)[C@H](CC(=O)O)NC(=O)[C@H](Cc2c[nH]c3ccc(F)cc23)NC(=O)[C@H](Cc2c[nH]c3ccc(F)cc23)NC(=O)CNC1=O` [Compound 329] ([Mpa]KG[Trp(5-F)][Trp(5-F)]DHY[Pro(cis-4-Ph)]C-NH2; linker 1-10 via mXylylene), the IC50 in test [1] and in test [2] was 100 to 1000 nM each time.
Turning to `C[C@@H]1NC(=O)CCCCc2ccc(cc2)CCCCNC(=O)C[C@@H](C(=O)N[C@@H](Cc2cnc[nH]2)C(=O)N[C@@H](Cc2ccc(O)cc2)C(=O)N2CCC[C@H]2C(N)=O)NC(=O)[C@H](Cc2c[nH]c3ccc(F)cc23)NC(=O)[C@H](Cc2c[nH]c3ccc(F)cc23)NC(=O)CNC1=O` [Compound 330] ([X19]AG[Trp(5-F)][Trp(5-F)]DHYP-NH2; lactam N-6), the values for the IC50 in test [1] and in test [2] were 100 to 1000 nM and 1000 to 12100 nM, respectively.
For `CC(=O)N[C@H]1CCCCn2cc(nn2)CC[C@@H](C(N)=O)NC(=O)[C@]2(C)CCCN2C(=O)[C@H](Cc2ccc(O)cc2)NC(=O)[C@H](Cc2cnc[nH]2)NC(=O)[C@H](CC(=O)O)NC(=O)[C@H](Cc2c[nH]c3ccc(F)cc23)NC(=O)[C@H](Cc2c[nH]c3ccc(F)cc23)NC(=O)CNC(=O)[C@H](C)NC1=O` [Compound 332] (Ac-[Lys(N3)]AG[Trp(5-F)][Trp(5-F)]DHY[αMeP][Hpra]-NH2; triazole 1-10), in that order: 0.1 to 100 nM and 100 to 1000 nM.
In the case of `CC(=O)N[C@H]1CCCn2cc(nn2)CCC[C@@H](C(N)=O)NC(=O)[C@]2(C)CCCN2C(=O)[C@H](Cc2ccc(O)cc2)NC(=O)[C@H](Cc2cnc[nH]2)NC(=O)[C@H](CC(=O)O)NC(=O)[C@H](Cc2c[nH]c3ccc(F)cc23)NC(=O)[C@H](Cc2c[nH]c3ccc(F)cc23)NC(=O)CNC(=O)[C@H](C)NC1=O` [Compound 333], the IC50 in test [1] and in test [2] was 1000 to 12100 nM in each case.
Consider `CC(=O)N[C@H]1Cc2cn(nn2)-c2ccc(cc2)C[C@@H](C(N)=O)NC(=O)[C@]2(C)CCCN2C(=O)[C@H](Cc2ccc(O)cc2)NC(=O)[C@H](Cc2cnc[nH]2)NC(=O)[C@H](CC(=O)O)NC(=O)[C@H](Cc2c[nH]c3ccc(F)cc23)NC(=O)[C@H](Cc2c[nH]c3ccc(F)cc23)NC(=O)CNC(=O)[C@H](C)NC1=O` [Compound 334], for which the IC50 in test [1] and in test [2] was 21000 to 50000 nM throughout.
Consider `CC(=O)N[C@@H]1Cc2cn(nn2)CCC[C@@H](C(N)=O)NC(=O)[C@]2(C)CCCN2C(=O)[C@H](Cc2ccc(O)cc2)NC(=O)[C@H](Cc2cnc[nH]2)NC(=O)[C@H](CC(=O)O)NC(=O)[C@H](Cc2c[nH]c3ccc(F)cc23)NC(=O)[C@H](Cc2c[nH]c3ccc(F)cc23)NC(=O)CNC1=O` [Compound 335] (Ac-[dPra]G[Trp(5-F)][Trp(5-F)]DHY[αMeP][Orn(N3)]-NH2; triazole 1-9), for which the IC50 in test [1] and in test [2] was 1000 to 12100 nM each time.
Turning to `CC(=O)N[C@@H]1Cc2cn(nn2)CCCC[C@@H](C(N)=O)NC(=O)[C@]2(C)CCCN2C(=O)[C@H](Cc2ccc(O)cc2)NC(=O)[C@H](Cc2cnc[nH]2)NC(=O)[C@H](CC(=O)O)NC(=O)[C@H](Cc2c[nH]c3ccc(F)cc23)NC(=O)[C@H](Cc2c[nH]c3ccc(F)cc23)NC(=O)CNC1=O` [Compound 336] (Ac-[dPra]G[Trp(5-F)][Trp(5-F)]DHY[αMeP][Lys(N3)]-NH2; triazole 1-9), the values for the IC50 in test [1] and in test [2] were 0.1 to 100 nM and 100 to 1000 nM, respectively.
For `COc1ccc(C[C@@H]2NC(=O)[C@H](Cc3cnc[nH]3)NC(=O)[C@H](CC(=O)O)NC(=O)[C@H](Cc3c[nH]c4ccc(F)cc34)NC(=O)[C@H](Cc3c[nH]c4ccc(F)cc34)NC(=O)[C@@H](C)NC(=O)[C@H](CCCCN)NC(=O)CCSCc3cc(F)cc(c3)CSC[C@@H](C(N)=O)NC(=O)[C@]3(C)CCCN3C2=O)cc1` [Compound 338] ([Mpa]K[dA][Trp(5-F)][Trp(5-F)]DHY(Me)[αMeP]C-NH2; linker 1-10 via mXylylene(5-F)), in that order: 1000 to 12100 nM and 1000 to 12100 nM.
With `CC(=O)N[C@H]1CCc2cn(nn2)CCCC[C@@H](C(N)=O)NC(=O)[C@]2(C)CCCN2C(=O)[C@H](Cc2ccc(O)cc2)NC(=O)[C@H](Cc2cnc[nH]2)NC(=O)[C@H](CC(=O)O)NC(=O)[C@H](Cc2c[nH]c3ccc(F)cc23)NC(=O)[C@H](Cc2c[nH]c3ccc(F)cc23)NC(=O)CNC(=O)[C@H](C)NC1=O` [Compound 339] (Ac-[Hpra]AG[Trp(5-F)][Trp(5-F)]DHY[αMeP][Lys(N3)]-NH2; triazole 1-10), the concentration for half-maximal inhibition (IC50) in test [1] and in test [2] was 1000 to 12100 nM each time.
For the compound `NCCC[C@@H]1NC(=O)CCSCc2cccc(c2)CSC[C@@H](C(N)=O)NC(=O)[C@@H]2CCCC2C(=O)[C@H](Cc2ccc(OCC3CCCCC3)cc2)NC(=O)[C@H](Cc2cnc[nH]2)NC(=O)[C@H](CC(=O)O)NC(=O)[C@H](Cc2c[nH]c3ccc(F)cc23)NC(=O)[C@H](Cc2c[nH]c3ccc(F)cc23)NC(=O)CNC1=O` (stereo partly shown) [Compound 340] ([Mpa][Orn]G[Trp(5-F)][Trp(5-F)]DH; linker 1-C via X38), the 50% inhibitory concentration (IC50) was 0.1 to 100 nM in test [1] and 100 to 1000 nM in test [2].

The record behind these values is patent publication US11530244B2, “Cyclic polypeptides for PCSK9 inhibition” (priority 2018, dated 2022).
